The results in this text go back to ChEMBL document CHEMBL5150029, “Conformationally Defined Rexinoids for the Prevention of Inflammation and Nonmelanoma Skin Cancers” (J Med Chem, 2022).

Active and inactive are the calls of the source. No cut-off for these calls is given here.

Assay [1] can be described thus: Induction of triglyceride level in Sprague-Dawley rat at 60 mg/kg in diet for 7 days relative to control. As to conditions: time 7 day. The assay is classed as functional.
For assay [2], the target named is T1, Retinoic acid receptor RXR-alpha (Homo sapiens, UniProt P19793).
T1 sequence (P19793 whole entry): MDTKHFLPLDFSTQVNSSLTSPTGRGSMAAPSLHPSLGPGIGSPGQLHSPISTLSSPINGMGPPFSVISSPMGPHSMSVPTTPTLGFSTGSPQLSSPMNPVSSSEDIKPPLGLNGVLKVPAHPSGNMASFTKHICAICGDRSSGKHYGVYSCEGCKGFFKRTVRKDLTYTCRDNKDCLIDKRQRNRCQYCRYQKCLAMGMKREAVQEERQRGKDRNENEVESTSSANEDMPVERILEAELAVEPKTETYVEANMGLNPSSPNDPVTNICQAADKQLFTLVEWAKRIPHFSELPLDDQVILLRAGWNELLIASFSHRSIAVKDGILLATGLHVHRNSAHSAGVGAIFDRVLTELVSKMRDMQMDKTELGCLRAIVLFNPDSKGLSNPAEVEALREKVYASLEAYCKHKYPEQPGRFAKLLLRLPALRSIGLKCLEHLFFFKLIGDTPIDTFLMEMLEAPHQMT
Put plainly: Binding affinity to human RXRalpha LBD (T225 to T462 residues) assessed as binding constant by isothermal titration calorimetry. (ITC needs no label: the signal is the heat of the interaction.)

Assay [3] addresses T2, Retinoic acid receptor RXR-alpha (Homo sapiens) (UniProt P19793).
T2 sequence (whole entry): T1 sequence (P19793 whole entry)
As to conditions: filed as agonist.
Description: Binding affinity to human RXRalpha LBD (T225 to T462 residues) assessed as change in entropy by isothermal titration calorimetry

The target in assay [4] is T2, Retinoic acid receptor RXR-alpha (Homo sapiens). As to conditions: filed as agonist. This is another data set of the same source.
Description: Binding affinity to human RXRalpha LBD (T225 to T462 residues) assessed as gibbs free energy change by isothermal titration calorimetry
The nature of assay [5]: Induction of triglyceride level in Sprague-Dawley rat at 200 mg/kg in diet for 7 days (reference value: 89 +/- 10 mg/dl). The class given is functional. The settings on record: time 7 day.
Assay [6] addresses T1, Retinoic acid receptor RXR-alpha. Put plainly: Binding affinity to human RXRalpha LBD (T225 to T462 residues) by fluorescence quenching assay.
Assay [7] in a line: Induction of triglyceride level in Sprague-Dawley rat at 200 mg/kg in diet for 7 days relative to control (reference value: 0 %). The assay is classed as functional. As to conditions: time 7 day.
Assay [8] addresses T1, Retinoic acid receptor RXR-alpha. Put plainly: Agonist activity at human GAL4-fused RXRalpha LBD (T225 to T462 residues) expressed in HEK293 cells incubated for 24 hrs by Dual-Glo luciferase assay. The class given is cell-based.
Assay [9] addresses T2, Retinoic acid receptor RXR-alpha (Homo sapiens). As to conditions: filed as agonist. The source holds these as a separate data set.
Description: Binding affinity to human RXRalpha LBD (T225 to T462 residues) assessed as change in enthalpy by isothermal titration calorimetry
The nature of assay [10]: Induction of triglyceride level in Sprague-Dawley rat at 150 mg/kg in diet for 7 days relative to control. The settings on record: time 7 day. The class given is functional.
The subject of assay [11] is Epithelial cell. Kind of assay: Upregulation of LRAT gene expression in human organotypic epithelial cells at 0.2 uM incubated for 9 days with replacement of fresh compounds every other day by qPCR analysis. As to conditions: time 9.0 day. The assay is classed as functional, cell-based. A general note: Real-time PCR tracks product formation cycle by cycle.
For assay [12], the system named is Epithelial cell. Kind of assay: Upregulation of RDH10 gene expression in human organotypic epithelial cells at 0.2 uM incubated for 9 days with replacement of fresh compounds every other day by qPCR analysis. The class given is functional, cell-based. As to conditions: time 9.0 day.
The subject of assay [13] is Epithelial cell. Kind of assay: Downregulation of LOR gene expression in human organotypic epithelial cells at 0.2 uM incubated for 9 days with replacement of fresh compounds every other day by qPCR analysis. The class given is functional, cell-based. As to conditions: time 9.0 day.
In assay [14] the test system is Epithelial cell. Kind of assay: Upregulation of CRABP2 gene expression in human organotypic epithelial cells at 0.2 uM incubated for 9 days with replacement of fresh compounds every other day by qPCR analysis. The class given is functional, cell-based. The settings on record: time 9.0 day.
In assay [15] the test system is Epithelial cell. Put plainly: Upregulation of STRA6 gene expression in human organotypic epithelial cells at 0.2 uM incubated for 9 days with replacement of fresh compounds every other day by qPCR analysis. The assay is classed as functional, cell-based. As to conditions: time 9.0 day.
The test system of assay [16] is Epithelial cell. Put plainly: Upregulation of RARB gene expression in human organotypic epithelial cells at 0.2 uM incubated for 9 days with replacement of fresh compounds every other day by qPCR analysis. The class given is functional, cell-based. As to conditions: time 9.0 day.
The subject of assay [17] is RAW264.7. Put plainly: Antiinflammatory activity in LPS-induced mouse RAW264.7 cells assessed as reduction in CCL5 level at 10 uM after 6 hrs by RT-PCR analysis. The assay is classed as functional, cell-based.
In assay [18] the test system is RAW264.7. Put plainly: Antiinflammatory activity in LPS-induced mouse RAW264.7 cells assessed as reduction in Csf3 level at 10 uM after 6 hrs by RT-PCR analysis. The assay is classed as functional, cell-based.
For assay [19], the system named is Epithelial cell. Put plainly: Upregulation of RARG gene expression in human organotypic epithelial cells at 0.2 uM incubated for 9 days with replacement of fresh compounds every other day by qPCR analysis. The settings on record: time 9.0 day. The assay is classed as functional, cell-based.
Assay [20] deals with RAW264.7. Put plainly: Antiinflammatory activity in LPS-induced mouse RAW264.7 cells assessed as reduction in IL-1beta level at 10 uM after 6 hrs by RT-PCR analysis. The class given is functional, cell-based.
Assay [21] relates to Epithelial cell. Put plainly: Downregulation of ACER1 gene expression in human organotypic epithelial cells at 0.2 uM incubated for 9 days with replacement of fresh compounds every other day by qPCR analysis. The class given is functional, cell-based. As to conditions: time 9.0 day.
Assay [22] concerns RAW264.7. Put plainly: Antiinflammatory activity in LPS-induced mouse RAW264.7 cells assessed as reduction in Saa3 level at 10 uM after 6 hrs by RT-PCR analysis. The class given is functional, cell-based.
The test system of assay [23] is Epithelial cell. Kind of assay: Upregulation of RBP1 gene expression in human organotypic epithelial cells at 0.2 uM incubated for 9 days with replacement of fresh compounds every other day by qPCR analysis. The settings on record: time 9.0 day. The class given is functional, cell-based.
Assay [24] has as its system RAW264.7. Kind of assay: Antiinflammatory activity in LPS-induced mouse RAW264.7 cells assessed as reduction in IL-6 level at 10 uM after 6 hrs by RT-PCR analysis. The assay is classed as functional, cell-based.
The test system of assay [25] is RAW264.7. Put plainly: Antiinflammatory activity in LPS-induced mouse RAW264.7 cells assessed as reduction in IL27 level at 10 uM after 6 hrs by RT-PCR analysis. The assay is classed as functional, cell-based.
For assay [26], the system named is RAW264.7. Put plainly: Antiinflammatory activity in LPS-induced mouse RAW264.7 cells assessed as reduction in CCL22 level at 10 uM after 6 hrs by RT-PCR analysis. The class given is functional, cell-based.
The subject of assay [27] is Epithelial cell. Kind of assay: Downregulation of MCM7 gene expression in human organotypic epithelial cells at 0.2 uM incubated for 9 days with replacement of fresh compounds every other day by qPCR analysis. The assay is classed as functional, cell-based. As to conditions: time 9.0 day.
Assay [28] deals with Mus musculus. Put plainly: Prevention of UVB-induced carcinogenesis in Ptch+/- / SHK-1 mouse assessed as reduction in tumor number at 25 mg/kg measured after twice a week of UVB irradiation for 34 weeks (reference value: 100 %). The assay is classed as functional. On the set-up: scale not given: the % may be the effect or the level left.
Assay [29] deals with Mus musculus. Kind of assay: Prevention of UVB-induced carcinogenesis in Ptch+/- / SHK-1 mouse assessed as reduction in tumor number at 25 mg/kg measured after twice a week of UVB irradiation for 34 weeks (reference value: 8.16 +/- 1.87). The assay is classed as functional.
In assay [30] the test system is Mus musculus. Kind of assay: Prevention of UVB-induced carcinogenesis in Ptch+/- / SHK-1 mouse assessed as reduction in tumor number at 24 mg/kg measured after twice a week of UVB irradiation for 34 weeks (reference value: 100 %). Also on record: scale not given: the % may be the effect or the level left. The assay is classed as functional.
The test system of assay [31] is Mus musculus. Put plainly: Prevention of UVB-induced carcinogenesis in Ptch+/- / SHK-1 mouse assessed as reduction in tumor number at 24 mg/kg measured after twice a week of UVB irradiation for 34 weeks (reference value: 8.16 +/- 1.87). The class given is functional.
The subject of assay [32] is Mus musculus. Kind of assay: Prevention of UVB-induced carcinogenesis in Ptch+/- / SHK-1 mouse assessed as reduction in tumor number at 20 mg/kg measured after twice a week of UVB irradiation for 34 weeks. The class given is functional.

In assay [1], `CC1=C(/C=C/C(C)=C\C=C\C(C)=C\C(=O)O)C(C)(C)CCC1` [ALITRETINOIN] registered an Activity of 400%.
As for `CCC(C)C1=C(CCC(C)C)/C(=C/C(C)=C\C=C\C(C)=C\C(=O)O)CCC1` (mixture of isomers), the values for the dissociation constant (Kd) in [2] and in [6] were 3500 nM and 4.1 nM, respectively. Also, the TdeltaS in assay [3] was 2.38 kcal/mol. The compound also registered a deltaG in [4] of -7.5 kcal/mol. The Activity amounted to 277 mg/dL in assay [5] and 211% in assay [7]. In assay [8], the EC50 (usually the concentration giving half of the maximal effect) was found to be 23 nM. The compound also had a deltaH in assay [9] of -5.1 kcal/mol.
For the compound `C=C(c1ccc(C(=O)O)cc1)c1cc2c(cc1C)C(C)(C)CCC2(C)C` [BEXAROTENE], in assay [10], the Activity is on record as 350%.
For `CC(=C/C=C/C(C)=C/C(=O)O)/C=C1\CCCC(CCC(C)C)=C1CCC(C)C`, the outcome with Epithelial cell [11], in the assay on Epithelial cell [12], with Epithelial cell [13], with Epithelial cell [14], in the assay on Epithelial cell [15] and with Epithelial cell [16] was Active. In addition, the outcome in the assay with RAW264.7 [17], in the assay with RAW264.7 [18], with Epithelial cell [19], with RAW264.7 [20], in the assay with Epithelial cell [21] and in the assay on RAW264.7 [22] was Active. Besides, the outcome in the assay with Epithelial cell [23], with RAW264.7 [24], in the assay with RAW264.7 [25], in the assay with RAW264.7 [26] and in the assay on Epithelial cell [27] was Active. Further, the Activity in assay [5] was determined as 107 mg/dL; in assay [7], 20%.
Consider `CCCCC1=C(CCC(C)C)/C(=C/C(C)=C\C=C\C(C)=C\C(=O)O)CCC1`, for which the figures for the dissociation constant (Kd) in assay [2] and in assay [6] were 3100 nM and 4.7 nM, respectively. In [3], this compound registered a TdeltaS of 0.76 kcal/mol. Besides, the deltaG in assay [4] was -7.5 kcal/mol. The Activity with Mus musculus [28] is 82%; in assay [5], 101 mg/dL; in the assay on Mus musculus [29], 1.44; in assay [7] it was 13%. The result in the assay on RAW264.7 [17], in the assay with RAW264.7 [18], in the assay with RAW264.7 [20], with RAW264.7 [22], in the assay on RAW264.7 [24] and in the assay on RAW264.7 [25] was Active. Moreover, the result with RAW264.7 [26] was Active. Besides, it took 210 nM to reach a half-maximal effect in assay [8] (EC50). Also, the deltaH in assay [9] is -6.8 kcal/mol.
Take `CCCC1=C(CCC(C)C)/C(=C/C(C)=C\C=C\C(C)=C\C(=O)O)CCC1`: the figures for the dissociation constant (Kd) in assay [2] and in assay [6] were 2000 nM and 3.6 nM, respectively. In addition, the result in the assay with Epithelial cell [11], with Epithelial cell [12], in the assay on Epithelial cell [13], with Epithelial cell [14], in the assay with Epithelial cell [15] and in the assay on Epithelial cell [16] was Active. Further, the outcome with RAW264.7 [17], in the assay with RAW264.7 [18], in the assay on Epithelial cell [19], with RAW264.7 [20], in the assay on Epithelial cell [21] and in the assay with RAW264.7 [22] was Active. Moreover, the outcome in the assay on Epithelial cell [23], in the assay on RAW264.7 [24], with RAW264.7 [25], with RAW264.7 [26] and in the assay with Epithelial cell [27] was Active. The TdeltaS in assay [3] was 0.38 kcal/mol. Besides, the deltaG in [4] was -7.8 kcal/mol. Besides, the Activity stood at 160 mg/dL in assay [5], 63% in the assay on Mus musculus [30], 80% in assay [7] and 3 in the assay with Mus musculus [31]. Also, it took 61 nM to reach a half-maximal effect in assay [8] (EC50). This compound yielded a deltaH in [9] of -7.4 kcal/mol.
Regarding `CC(=C/C=C/C(C)=C/C(=O)O)/C=C1\CCCc2ccccc21` [UAB-30], in the assay on Mus musculus [32], the Activity is listed as 5.4.
